# Experimental data published in article PMC10823475, “Design, Synthesis, and Evaluation of Inhibitors of Hedgehog Acyltransferase” (Journal of Medicinal Chemistry, 2024).
# “And” between values parts separate entries of the source, which are not always exact repeats. Equal entries are not always repeated.
# How the values were obtained:
# in vitro = details: PAMPA
# Protocol: (§3) Passive diffusion was estimated using the PAMPA method. […] The donor plate was a MultiScreen-IP Plate with 0.45 μm hydrophobe Immobilon-P Membrane (Millipore, #MAIPNTR10) and the acceptor plate was a MultiScreen 96-well Transport Receiver Plate (Millipore, #MATRNPS50). […] Acceptor pH was 7.4. All samples were analyzed against an external, matrix-matched, standard curve by LC-MS/MS with a Waters (Elstree, Herts. UK) Acquity H-class LC system coupled to a Waters TQ-S mass spectrometer. Permeability values (cm/s) were calculated using the following equation: [drawing 2] and VD = volume of donor; VA = volume of acceptor; area = surface area of the membrane · porosity.
# purified HHAT = molecular target: T1, purified HHAT (Homo sapiens, UniProt Q5VTY9); assay: Acyl-cLIP assay, inhibition of purified HHAT; format: biochemical; details: for IC50: purified HHAT, read-out: Acyl-cLIP Assay IC50 (CI95)
# T1 construct: made in house
# How it was run: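 Fluorescence polarization of FAM-labelled SHH N-terminal peptide palmitoylated by DDM-solubilized purified recombinant HHAT with palmitoyl-CoA, pH 6.5 MES buffer, read over 30 min. Initial rates normalized to DMSO and no-enzyme controls; IC50 from variable-slope sigmoidal fit of 1:1 serial dilutions; single-point % inhibition at 50 and 25 μM.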
# [1] = PAMPA parallel artificial membrane permeability assay; details: for recovery at 16 h, 10 µM / Papp at 16 h, 10 μM: PAMPA
# Protocol: as §3
# [2] = Microsomal incubations, human liver microsomes; format: in vitro ADME; details: 1 μM
# Protocol: (§1) Metabolic stability assays were performed using a Microlab Star liquid handling workstation (Hamilton Robotics, Bonaduz, Switzerland). Test compounds (1 μM, 1% DMSO) were preincubated at 37 °C for 10 min in 0.5 mg/mL female CD1 mouse and mixed gender human liver microsomes in 10 mM phosphate buffered saline (PBS; Sigma-Aldrich Company Ltd. (Dorset, UK)). Microsomes were purchased either from Sekisui XenoTech, LLC (Kansas City, USA) or BioreclamationIVT (Frankfurt Am Main, Germany). Reactions were initiated by the addition of NADPH (final concentration 1 mM). At 0, 15, and 30 min, aliquots were removed from each incubation and quenched in 3 volumes of ice-cold methanol containing olomoucine (Sigma-Aldrich, Dorset, UK) as an internal standard. […] The percentage metabolized was calculated by comparing peak area ratio (peak area test compound/peak area of internal standard) at t = 15 and 30 min versus t = 0 min.
# HEK293a SHH+ cells = assay: MTS assay, cytotoxicity (72 h); format: cell-based
# How it was run: (§2)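 Cells plated at 5000/well, cultured 24 h, then exposed to analogues (0.14–100 μM final) in DMEM/10% FBS for 72 h. MTS/PMS added for 3 h at 37 °C and absorbance read at 490 nm; data normalised to DMSO vehicle and puromycin (2 μg/mL) wells, curves fitted with a variable-slope sigmoidal model.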
# [3] = MTS assay, cytotoxicity (72 h); format: cell-based; details: human, HEK293a SHH+ cells, 72 h; for CC50 at 72 h: read-out: MTS Assay (HEK293a SHH+) CC50 (CI95)
# How it was run: as §2
# [4] = Microsomal incubations, mouse liver microsomes; format: in vitro ADME; details: 1 μM
# Protocol: as §1
# [5] = pH 5, PAMPA Papp pH 5, donor pH 5, 10 µM
# [6] = pH 5, PAMPA Permeability Class pH 5, donor pH 5, 10 µM
# [7] = pH 6.5, PAMPA Papp pH 6.5, donor pH 6.5, 10 µM
# [8] = pH 6.5, PAMPA Permeability Class pH 6.5, donor pH 6.5, 10 µM
# [9] = pH 7.4, PAMPA Papp pH 7.4, donor pH 7.4, 10 µM
# T1 sequence (Q5VTY9 whole entry): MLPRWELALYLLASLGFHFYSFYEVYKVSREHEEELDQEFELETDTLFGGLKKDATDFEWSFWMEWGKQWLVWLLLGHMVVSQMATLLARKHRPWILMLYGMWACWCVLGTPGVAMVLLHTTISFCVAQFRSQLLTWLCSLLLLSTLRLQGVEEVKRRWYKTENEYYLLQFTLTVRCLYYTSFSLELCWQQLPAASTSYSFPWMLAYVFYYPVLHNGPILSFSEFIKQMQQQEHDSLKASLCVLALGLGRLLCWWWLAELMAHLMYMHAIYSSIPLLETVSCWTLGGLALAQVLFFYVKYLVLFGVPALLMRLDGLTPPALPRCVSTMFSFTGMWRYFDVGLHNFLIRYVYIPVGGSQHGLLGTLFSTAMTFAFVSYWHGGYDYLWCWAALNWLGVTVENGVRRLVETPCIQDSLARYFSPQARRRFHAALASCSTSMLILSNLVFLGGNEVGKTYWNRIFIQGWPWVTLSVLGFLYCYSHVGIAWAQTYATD
SMILES,inhibition at 25 µM (purified HHAT) [%],inhibition at 50 µM (purified HHAT) [%],IC50 (purified HHAT) [µM],"recovery at 16 h, 10 µM ([1]; pH 5) [%]","Papp at 16 h, 10 μM [1, 5] [×10⁻⁶ cm/s]","Papp at 16 h, 10 μM [1, 6] [×10⁻⁶ cm/s]","recovery at 16 h, 10 µM ([1]; pH 6.5) [%]","Papp at 16 h, 10 μM [1, 7] [×10⁻⁶ cm/s]","Papp at 16 h, 10 μM [1, 8] [×10⁻⁶ cm/s]","recovery at 16 h, 10 µM ([1]; pH 7.4) [%]","Papp at 16 h, 10 μM [1, 9] [×10⁻⁶ cm/s]",PAMPA passive permeability ([1]; pH 7.4),HLM % metabolized after 15 min [2] [%],HLM % metabolized after 30 min [2] [%],CC50 at 72 h [3] [µM],"viability at 72 h, 12.5 µM [3] [%]","viability at 72 h, 25 µM [3] [%]",MLM % metabolized after 15 min [4],MLM % metabolized after 30 min [4] [%],further results
Cc1cc(=O)n(-c2ccccc2)n1C [Antipyrine],,,,,,,,,,,,,,,,,,,,"recovery at 16 h, 10 µM (in vitro; pH 5): 109%; Papp at 16 h, 10 μM (in vitro; pH 5, PAMPA Papp pH 5): 6.5 ×10⁻⁶ cm/s; Papp at 16 h, 10 μM (in vitro; pH 5, PAMPA Permeability Class pH 5): 5 to 20 ×10⁻⁶ cm/s; recovery at 16 h, 10 µM (in vitro; pH 6.5): 119%; Papp at 16 h, 10 μM (in vitro; pH 6.5, PAMPA Papp pH 6.5): 6.6 ×10⁻⁶ cm/s; Papp at 16 h, 10 μM (in vitro; pH 6.5, PAMPA Permeability Class pH 6.5): 5 to 20 ×10⁻⁶ cm/s; recovery at 16 h, 10 µM (in vitro; pH 7.4): 145%; Papp at 16 h, 10 μM (in vitro; pH 7.4, PAMPA Papp pH 7.4): 7.3 ×10⁻⁶ cm/s; Papp at 16 h, 10 μM (in vitro; pH 7.4, PAMPA Permeability Class pH 7.4): 5 to 20 ×10⁻⁶ cm/s"
"CC(=O)N1CCc2ccccc2C1c1ccccc1 (stereo not shown) [Compound 37, 1-(1-Phenyl-3,4-dihydroisoquinolin-2(1H)-yl)ethan-1-one]",55 ± 7,53 ± 3,> 25,95,> 200,> 20,92,> 200,> 20,89,> 200,high passive permeability,45.2,55.9,47.9,101 ± 5,94 ± 6,94.6% and > 90%,99.8,"Papp at 16 h, 10 μM ([1]; pH 7.4, PAMPA Permeability Class pH 7.4, donor pH 7.4, 10 µM): > 20 ×10⁻⁶ cm/s; PAMPA permeability ([1]; over the full pH range tested): high permeability; CC50 (HEK293a SHH+ cells; 72 h, read-out: MTS Assay (HEK293a SHH+) CC50 (CI95)): > 50 µM"
"CCC(C)CNCC(=O)N1CCc2ccccc2C1c1ccccc1 (stereo not shown) [Compound 38, 2-((2-Methylbutyl)amino)-1-(1-phenyl-3,4-dihydroisoquinolin-2(1H)-yl)ethan-1-one]",91 ± 5,95 ± 5,7.01,91,1.3,< 5,45,24.4,> 20,17,53.9,high passive permeability,30.3,49.2,8.1,69 ± 4,33 ± 6,100.0% and > 90%,100.0,LLEAcyl-cLIP (purified HHAT; from Acyl-cLIP IC50 and clogDpH7.4): 2.82; toxicity to HEK293a SHH+ cells (HEK293a SHH+ cells): toxic
